One assay concerns the target T1, rat PrRP receptor (Rattus norvegicus, UniProt Q64121).
T1 construct: host or cells: RC-4B/C rat pituitary cell line
T1 sequence (Q64121 1-370): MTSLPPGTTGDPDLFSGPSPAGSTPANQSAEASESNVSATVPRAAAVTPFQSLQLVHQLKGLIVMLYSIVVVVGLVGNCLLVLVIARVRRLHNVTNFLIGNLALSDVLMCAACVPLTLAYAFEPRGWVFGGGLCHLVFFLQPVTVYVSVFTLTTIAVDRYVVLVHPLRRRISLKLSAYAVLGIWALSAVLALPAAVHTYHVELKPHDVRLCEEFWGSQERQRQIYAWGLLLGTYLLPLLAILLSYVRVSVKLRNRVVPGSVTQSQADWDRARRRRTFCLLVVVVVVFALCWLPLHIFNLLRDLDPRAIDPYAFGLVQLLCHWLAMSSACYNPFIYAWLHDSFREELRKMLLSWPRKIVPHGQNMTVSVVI
In words: Competitive binding in RC-4B/C rat pituitary cells (125I-rat PrRP31). The note with it: for Ki: RC-4B/C cells, displacement of 125I-rat PrRP31, read-out: Ki, RC-4B/C rat pituitary cells ^25I-rat PrRP31; for % of PrRP31, RC-4B/C rat pituitary cells: affinity relative to PrRP31. How it is done: (§1) Competitive binding experiments were performed according to Motulsky and Neubig (Motulsky, A., et al., “Analyzing radioligand binding data,” Curr Protoc Neurosci, Chapter 7, Unit 7.5, 2002). Binding experiments were conducted with rat pituitary cells, and with Chinese Hamster Ovary (CHO) cells as follows:
The rat pituitary cell line RC-4B/C (ATCC, Manassas, USA) was grown on 24-well plates which had their bottom coated with polyethyleneimine. The cells were grown to the optimal density of 300-450 thousand cells per well. The following agents were used for the experiment: binding buffer (20 mmol·l^−1 HEPES, Ph 7.4; 118 mmol·l^−1 NaCl, 4.7 mmol·l^−1 KCl, 5 mmol·l^−1 MgCl2, 5.5 mmol·l^−1 glucose, 1 mg/ml BSA, 0.1 BPTI), unlabeled analogs of PrRP (i.e. the analog being tested) at a final concentration between 10^−11 to 10^−4 mol·l^−1, and rat ^125I-PrRP31 (labeled with radioactive Iodine-125) at a final concentration of […] (Maixnerová et al., 2011).
(§2) Plates were incubated for 60 minutes at room temperature. After incubation, the cells were solubilized in 0.1 mol/l solution of NaOH, and the radioactivity bound to the cells was counted using a γ-counter. The experiments were performed in duplicate, and repeated at least three times.
(§3) Graph Pad Prism Software (San Diego, Calif., USA) was used for evaluating the competitive binding experiments. Nonlinear regression was performed using a onsite binding model.

Assay [1] concerns the target T2, human PrRP receptor GPR10 (Homo sapiens, UniProt P49683).
T2 construct: host or cells: CHO cells
T2 sequence (P49683 1-370): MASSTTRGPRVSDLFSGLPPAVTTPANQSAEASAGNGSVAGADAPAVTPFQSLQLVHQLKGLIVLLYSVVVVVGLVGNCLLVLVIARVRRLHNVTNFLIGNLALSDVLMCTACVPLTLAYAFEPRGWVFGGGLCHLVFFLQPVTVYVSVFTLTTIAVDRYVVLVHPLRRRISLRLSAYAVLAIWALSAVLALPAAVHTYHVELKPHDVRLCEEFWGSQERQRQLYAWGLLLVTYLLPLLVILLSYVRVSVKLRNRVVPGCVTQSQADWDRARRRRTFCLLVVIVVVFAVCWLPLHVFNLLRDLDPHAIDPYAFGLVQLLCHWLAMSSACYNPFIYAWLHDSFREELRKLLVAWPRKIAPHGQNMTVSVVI
The assay can be described thus: Competitive binding in CHO cells transfected with human GPR10 (human 125I-PrRP31). Particulars: for Ki: CHO cells, human 125I-PrRP31, read-out: Ki, GPR10 human receptor transfected in CHO cells; for % of PrRP31, GPR10 human receptor transfected in CHO cells: affinity relative to PrRP31. How it is done:
as §1
CHO cells transfected with human PrRP receptor GPR10 (Perkin Elmer, USA) were grown on 24-well plates coated with polyethyleneimine. The cells were grown to the optimal density of 40-80 thousand cells per well. The following agents were used for the experiment: binding buffer (25 mmol·l^−1 Tris, pH 7.4; 118 mmol·l^−1 NaCl, 10 mmol·l^−1 MgCl2, 10 mmol·l^−1 CaCl2, 5.5 mmol·l^−1 glucose, 0.5 mg/ml BSA), unlabeled analogs of PrRP (i.e. the analog being tested) at a final concentration between 10^−11 to 10^−4 mol·l^−1, and radiolabeled human ^125I-PrRP31 at a final concentration of 5×10^−11 mol·l^−1.
as §2, §3

Square brackets hold non-standard residues; d marks the D form. Peptide text beside a SMILES is read from it. * marks the point of attachment. Phe(4-NO2) = N[C@@H](Cc1ccc([N+](=O)[O-])cc1)C(=O)O; Phe(3,4-Cl2) = N[C@@H](Cc1ccc(Cl)c(Cl)c1)C(=O)O; Phe(F5) = N[C@@H](Cc1c(F)c(F)c(F)c(F)c1F)C(=O)O; Myristoyl = CCCCCCCCCCCCCC(=O)*; Nle = CCCC[C@H](N)C(=O)O; Sar = CNCC(=O)O

Consider `CCCC[C@H](NC(=O)[C@H](CO)NC(=O)[C@H](Cc1c[nH]cn1)NC(=O)[C@H](CCC(N)=O)NC(=O)[C@H](Cc1c[nH]cn1)NC(=O)[C@H](C)NC(=O)[C@H](CCCNC(=N)N)NC(=O)[C@@H](N)CO)C(=O)N[C@@H](CCC(=O)O)C(=O)N[C@H](C(=O)N[C@@H](CCCNC(=N)N)C(=O)N[C@H](C(=O)N1CCC[C@H]1C(=O)N[C@@H](CC(=O)O)C(=O)N[C@H](C(=O)N[C@@H](CC(N)=O)C(=O)N1CCC[C@H]1C(=O)N[C@@H](C)C(=O)N[C@@H](Cc1c[nH]c2ccccc12)C(=O)N[C@@H](Cc1ccc(O)cc1)C(=O)N[C@H](C(=O)NCC(=O)N[C@@H](CCCNC(=N)N)C(=O)NCC(=O)N[C@H](C(=O)N[C@@H](CCCNC(=N)N)C(=O)N1CCC[C@H]1C(=O)N[C@H](C(=O)NCC(=O)N[C@@H](CCCNC(=N)N)C(=O)N[C@@H](Cc1ccc(Cl)c(Cl)c1)C(N)=O)C(C)C)[C@@H](C)CC)[C@@H](C)O)[C@@H](C)CC)[C@@H](C)O)[C@@H](C)O` [Analog 13] (H-SRAHQHS[Nle]ETRTPDINPAWYTGRGIRPVGR[Phe(3,4-Cl2)]-NH2; N-terminus assumed), for which, on rat PrRP receptor, the Ki is 3.84 ± 0.93 nM and the “% of PrRP31, RC-4B/C rat pituitary cells” value worked out at 128%. In assay [1], the Ki amounted to 2.27 ± 0.48 nM and the “% of PrRP31, GPR10 human receptor transfected in CHO cells” value (shortened to “% of PrRP31 … in CHO cells”) was 171%.
For the molecule `CCCC[C@H](NC(=O)[C@H](CO)NC(=O)[C@H](Cc1c[nH]cn1)NC(=O)[C@H](CCC(N)=O)NC(=O)[C@H](Cc1c[nH]cn1)NC(=O)[C@H](C)NC(=O)[C@H](CCCNC(=N)N)NC(=O)[C@@H](N)CO)C(=O)N[C@@H](CCC(=O)O)C(=O)N[C@H](C(=O)N[C@@H](CCCNC(=N)N)C(=O)N[C@H](C(=O)N1CCC[C@H]1C(=O)N[C@@H](CC(=O)O)C(=O)N[C@H](C(=O)N[C@@H](CC(N)=O)C(=O)N1CCC[C@H]1C(=O)N[C@@H](C)C(=O)N[C@@H](Cc1c[nH]c2ccccc12)C(=O)N[C@@H](Cc1ccc(O)cc1)C(=O)N[C@H](C(=O)NCC(=O)N[C@@H](CCCNC(=N)N)C(=O)NCC(=O)N[C@H](C(=O)N[C@@H](CCCNC(=N)N)C(=O)N1CCC[C@H]1C(=O)N[C@H](C(=O)NCC(=O)N[C@@H](CCCNC(=N)N)C(=O)N[C@@H](Cc1ccc([N+](=O)[O-])cc1)C(N)=O)C(C)C)[C@@H](C)CC)[C@@H](C)O)[C@@H](C)CC)[C@@H](C)O)[C@@H](C)O` [Analog 16] (H-SRAHQHS[Nle]ETRTPDINPAWYTGRGIRPVGR[Phe(4-NO2)]-NH2; N-terminus assumed), on rat PrRP receptor, the Ki worked out at 19.9 ± 5.9 nM and the “% of PrRP31, RC-4B/C rat pituitary cells” value is listed as 2.5%. In assay [1], the Ki came out at 4.8 ± 0.88 nM and the “% of PrRP31 … in CHO cells” value was determined as 81%.
`CCCCCCCCCCCCCC(=O)N[C@@H](CO)C(=O)N[C@@H](CCCNC(=N)N)C(=O)N[C@@H](C)C(=O)N[C@@H](Cc1c[nH]cn1)C(=O)N[C@@H](CCC(N)=O)C(=O)N[C@@H](Cc1c[nH]cn1)C(=O)N[C@@H](CO)C(=O)N[C@@H](CCCC)C(=O)N[C@@H](CCC(=O)O)C(=O)N[C@H](C(=O)N[C@@H](CCCNC(=N)N)C(=O)N[C@H](C(=O)N1CCC[C@H]1C(=O)N[C@@H](CC(=O)O)C(=O)N[C@H](C(=O)N[C@@H](CC(N)=O)C(=O)N1CCC[C@H]1C(=O)N[C@@H](C)C(=O)N[C@@H](Cc1c[nH]c2ccccc12)C(=O)N[C@@H](Cc1ccc(O)cc1)C(=O)N[C@H](C(=O)NCC(=O)N[C@@H](CCCNC(=N)N)C(=O)NCC(=O)N[C@H](C(=O)N[C@@H](CCCNC(=N)N)C(=O)N1CCC[C@H]1C(=O)N[C@H](C(=O)NCC(=O)N[C@@H](CCCNC(=N)N)C(=O)N[C@@H](Cc1ccc([N+](=O)[O-])cc1)C(N)=O)C(C)C)[C@@H](C)CC)[C@@H](C)O)[C@@H](C)CC)[C@@H](C)O)[C@@H](C)O` [Analog 17] (Myristoyl-SRAHQHS[Nle]ETRTPDINPAWYTGRGIRPVGR[Phe(4-NO2)]-NH2): at rat PrRP receptor, the Ki was determined as 1.97 ± 1.26 nM and the “% of PrRP31, RC-4B/C rat pituitary cells” value was 250%. Also, in assay [1], the Ki was 1.59 ± 1.05 nM and the “% of PrRP31 … in CHO cells” value was determined as 245%.
On to `CCCC[C@H](NC(=O)[C@H](CO)NC(=O)[C@H](Cc1c[nH]cn1)NC(=O)[C@H](CCC(N)=O)NC(=O)[C@H](Cc1c[nH]cn1)NC(=O)[C@H](C)NC(=O)[C@H](CCCNC(=N)N)NC(=O)[C@@H](N)CO)C(=O)N[C@@H](CCC(=O)O)C(=O)N[C@H](C(=O)N[C@@H](CCCNC(=N)N)C(=O)N[C@H](C(=O)N1CCC[C@H]1C(=O)N[C@@H](CC(=O)O)C(=O)N[C@H](C(=O)N[C@@H](CC(N)=O)C(=O)N1CCC[C@H]1C(=O)N[C@@H](C)C(=O)N[C@@H](Cc1c[nH]c2ccccc12)C(=O)N[C@@H](Cc1ccc(O)cc1)C(=O)N[C@H](C(=O)NCC(=O)N[C@@H](CCCNC(=N)N)C(=O)NCC(=O)N[C@H](C(=O)N[C@@H](CCCNC(=N)N)C(=O)N1CCC[C@H]1C(=O)N[C@H](C(=O)NCC(=O)N[C@@H](CCCNC(=N)N)C(=O)N[C@@H](Cc1c(F)c(F)c(F)c(F)c1F)C(N)=O)C(C)C)[C@@H](C)CC)[C@@H](C)O)[C@@H](C)CC)[C@@H](C)O)[C@@H](C)O` [Analog 21] (H-SRAHQHS[Nle]ETRTPDINPAWYTGRGIRPVGR[Phe(F5)]-NH2), for which, on rat PrRP receptor, the “% of PrRP31, RC-4B/C rat pituitary cells” value came out at 51%. Moreover, the “% of PrRP31 … in CHO cells” value in assay [1] was found to be 45%.
The matching figures for `CCCC[C@H](NC(=O)[C@H](CO)NC(=O)[C@H](Cc1c[nH]cn1)NC(=O)[C@H](CCC(N)=O)NC(=O)[C@H](Cc1c[nH]cn1)NC(=O)[C@H](C)NC(=O)[C@H](CCCNC(=N)N)NC(=O)[C@@H](N)CO)C(=O)N[C@@H](CCC(=O)O)C(=O)N[C@H](C(=O)N[C@@H](CCCNC(=N)N)C(=O)N[C@H](C(=O)N1CCC[C@H]1C(=O)N[C@@H](CC(=O)O)C(=O)N[C@H](C(=O)N[C@@H](CC(N)=O)C(=O)N1CCC[C@H]1C(=O)N[C@@H](C)C(=O)N[C@@H](Cc1c[nH]c2ccccc12)C(=O)N[C@@H](Cc1ccc(O)cc1)C(=O)N[C@H](C(=O)NCC(=O)N[C@@H](CCCNC(=N)N)C(=O)NCC(=O)N[C@H](C(=O)N[C@@H](CCCNC(=N)N)C(=O)N1CCC[C@H]1C(=O)N[C@H](C(=O)NCC(=O)N[C@@H](CCCNC(=N)N)C(=O)N[C@@H](Cc1ccc(O)cc1)C(N)=O)C(C)C)[C@@H](C)CC)[C@@H](C)O)[C@@H](C)CC)[C@@H](C)O)[C@@H](C)O` [Analog 23] (H-SRAHQHS[Nle]ETRTPDINPAWYTGRGIRPVGRY-NH2): 152% and 193%.
Taken in the same sequence, the figures for `CC[C@H](C)[C@H](NC(=O)CN(C)C(=O)[C@H](CCCNC(=N)N)NC(=O)CNC(=O)[C@@H](NC(=O)[C@H](Cc1ccc(O)cc1)NC(=O)[C@H](Cc1c[nH]c2ccccc12)NC(=O)[C@H](C)NC(=O)[C@@H]1CCCN1C(=O)[C@H](CC(N)=O)NC(=O)[C@@H](NC(=O)[C@H](CC(=O)O)NC(=O)[C@@H]1CCCN1C(=O)[C@@H](N)[C@@H](C)O)[C@@H](C)CC)[C@@H](C)O)C(=O)N[C@@H](CCCNC(=N)N)C(=O)N1CCC[C@H]1C(=O)N[C@H](C(=O)NCC(=O)N[C@@H](CCCNC(=N)N)C(=O)N[C@@H](Cc1ccccc1)C(N)=O)C(C)C` [Analog 27] (H-TPDINPAWYTGR[Sar]IRPVGRF-NH2) were 62% and 86%.

For the origin of these results see US10350271B2, “Lipidated peptides for lowering blood glucose” (USTAV ORGANICKE CHEMIE A BIOCHEMIE AKADEMIE VED CR, V.V.I., priority 2014, dated 2019).
